In one assay the target is NC(11-55) (Human immunodeficiency virus type 1, UniProt P12493). Description: NC inhibition assay (NC-induced cTAR DNA destabilization, fluorescence). The assay is classed as biochemical, HIV-1. To be noted: single point screening; positive = >25% inhibition at 100µM. An outline of the steps: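 Doubly labelled cTAR (0.1 µM, Alexa488/Dabcyl) pre-complexed with 1 µM Zn-loaded NC(11-55) for 15 min, then compound added for a further 15 min; run at 20 °C in Tris-HCl pH 7.5, 30 mM NaCl, 0.2 mM MgCl2. Fluorescence read at ex 480/em 520 nm. IC50 taken from dose-response fit of % inhibition of NC-induced fluorescence increase.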

The target of assay [1] is T1, full length (1-55) HIV-1 NCp7 (Human immunodeficiency virus type 1 group M subtype B, UniProt P12493).
T1 construct: recombinant full length (1-55) HIV-1 NCp7 proteins; made in house
Description: Electromobility Shift Assay (EMSA), competition for ssDNA binding. The note with it: NCp7 300 nM, M13mp18 ssDNA; positive = >25% inhibition at 100µM. A digest of the protocol: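 Recombinant NL4-3 NCp7 (300 nM in the pre-mix) was combined with compound in 20 mM Tris-HCl pH 7.4, 2 mM MgCl2, 100 mM NaCl, 1 mM DTT, then M13mp18 ssDNA was added for 25 min at 37 °C. Complexes were run on 1% agarose/0.5x TBE and stained with SybrGold. IC50 is the concentration at which bound ssDNA migrated 50% of the bound–unbound distance (triplicate).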

Some results are limits rather than exact numbers.

As to `CC(NC(=O)c1nc(-c2nccc3ccccc23)nc(O)c1O)C1CCC(F)(F)CC1` (stereo not shown) [Compound 90, N-(1-(4,4-difluorocyclohexyl)ethyl)-5,6-dihydroxy-2-(isoquinolin-1-yl)pyrimidine-4-carboxamide], at NC(11-55), the inhibition (commonly the change of the read-out against control, counted positive when it falls) at 100 µM was greater than 25%. The EMSA screening results in assay [1] is listed as “Positive (A compound showing >25% inhibition when tested at 100µM concentration is considered as "positive")”.

`Cc1cc(-c2nc(O)c(O)c(C(=O)N[C@H](C)C3CCCCC3)n2)nc2ccccc12` [Compound 73, (R)-N-(1-cyclohexylethyl)-5,6-dihydroxy-2-(4-methylquinolin-2-yl)pyrimidine-4-carboxamide] displayed an inhibition at 100 µM against NC(11-55) greater than 25%. Moreover, the EMSA screening results in assay [1] was “Positive (A compound showing >25% inhibition when tested at 100µM concentration is considered as "positive")”.

In the case of `C[C@H](NC(=O)c1nc(-c2cc(C(=O)OCc3ccccc3)ccn2)nc(O)c1O)C1CCCCC1` [Compound 71, benzyl (S)-2-(4-((1-cyclohexylethyl)carbamoyl)-5,6-dihydroxypyrimidin-2-yl)isonicotinate], the inhibition at 100 µM against NC(11-55) is greater than 25%. Besides, the EMSA screening results in assay [1] is “Positive (A compound showing >25% inhibition when tested at 100µM concentration is considered as "positive")”.

In turn, `C[C@H](NC(=O)c1nc(-c2cc3ccccc3cn2)nc(O)c1O)C1CCCCC1` [Compound 72, (S)-N-(1-cyclohexylethyl)-5,6-dihydroxy-2-(isoquinolin-3-yl)pyrimidine-4-carboxamide] showed an inhibition at 100 µM against NC(11-55) greater than 25%. Moreover, the EMSA screening results in assay [1] is on record as “Positive (A compound showing >25% inhibition when tested at 100µM concentration is considered as "positive")”.

As to `C[C@H](NC(=O)c1nc(-c2ccc3ccccc3n2)nc(O)c1O)C1CCCCC1` [Compound 75, (S)-N-(1-cyclohexylethyl)-5,6-dihydroxy-2-(quinolin-2-yl)pyrimidine-4-carboxamide], the inhibition at 100 µM against NC(11-55) is greater than 25%. In assay [1], the EMSA screening results is given as “Positive (A compound showing >25% inhibition when tested at 100µM concentration is considered as "positive")”.

`Cc1ccnc(-c2nc(O)c(O)c(C(=O)NC3(C4CCCCC4)CC3)n2)c1` [Compound 84, N-(1-cyclohexylcyclopropyl)-5,6-dihydroxy-2-(4-methylpyridin-2-yl)pyrimidine-4-carboxamide] registered an inhibition at 100 µM against NC(11-55) greater than 25%. For the same compound, the EMSA screening results in assay [1] is on record as “Positive (A compound showing >25% inhibition when tested at 100µM concentration is considered as "positive")”.

Compound `C[C@@H](NC(=O)c1nc(-c2cc(C(=O)NCc3ccccc3)ccn2)nc(O)c1O)C1CCCCC1` [Compound 74, (R)-2-(4-(benzylcarbamoyl)pyridin-2-yl)-N-(1-cyclohexylethyl)-5,6-dihydroxypyrimidine-4-carboxamide] had an inhibition at 100 µM against NC(11-55) greater than 25%. Besides, in assay [1], the EMSA screening results is “Positive (A compound showing >25% inhibition when tested at 100µM concentration is considered as "positive")”.

Consider `C[C@H](NC(=O)c1nc(-c2ccc(C(=O)OCc3ccccc3)cn2)nc(O)c1O)C1CCCCC1` [Compound 70, benzyl (S)-6-(4-((1-cyclohexylethyl)carbamoyl)-5,6-dihydroxypyrimidin-2-yl)nicotinate], for which the inhibition at 100 µM at NC(11-55) was greater than 25%. For the same compound, the EMSA screening results in assay [1] is given as “Positive (A compound showing >25% inhibition when tested at 100µM concentration is considered as "positive")”.

(Values after patent EP3290412A1, “HIV-1 NUCLEOCAPSID INHIBITORS” (Università degli Studi di Siena, priority 2016, dated 2018).)
